# In DBAASP:
# Legend:
# Experiment in all cases: ≥ marks a high value that may be exact or a test limit, other limits are often not marked, values filed in µg/mL are converted to µM
# [1] = tested on: Staphylococcus epidermidis KCTC 1917
# Enterococcus faecalis VR = tested on: Enterococcus faecalis VR
# Staphylococcus aureus MR = tested on: Staphylococcus aureus MR
# [2] = tested on: Staphylococcus aureus KCTC 1621
# [3] = tested on: Pseudomonas aeruginosa KCTC 1637
# [4] = tested on: Escherichia coli KCTC 1682
# Enterococcus faecium = tested on: Enterococcus faecium
# Enterococcus faecium VR = tested on: Enterococcus faecium VR
# [5] = tested on: Salmonella typhimurium KCTC 1926
# [6] = tested on: Bacillus subtilis KCTC 3068
# Enterococcus faecalis = tested on: Enterococcus faecalis
# Micrococcus luteus A270 = tested on: Micrococcus luteus A270
# [7] = tested on: Salmonella enterica subsp. enterica serovar Enteritidis
# Escherichia coli = tested on: Escherichia coli
# Listeria innocua = tested on: Listeria innocua
# Streptococcus mutans = tested on: Streptococcus mutans
# Salmonella typhimurium = tested on: Salmonella typhimurium
# Saccharomyces cerevisiae = tested on: Saccharomyces cerevisiae
# Pseudomonas putida = tested on: Pseudomonas putida
# Serratia marcescens = tested on: Serratia marcescens
# Streptococcus pneumoniae = tested on: Streptococcus pneumoniae
# Bacillus subtilis = tested on: Bacillus subtilis
# Cryptococcus neoformans = tested on: Cryptococcus neoformans
# Staphylococcus aureus = tested on: Staphylococcus aureus
# Candida albicans = tested on: Candida albicans
# [8] = tested on: Candida albicans ATCC 90028
# [9] = tested on: Klebsiella pneumoniae ATCC 700603
# [10] = tested on: Acinetobacter baumannii ATCC 19606
# [11] = tested on: Cryptococcus neoformans ATCC 208821
# [12] = tested on: Staphylococcus aureus ATCC 43300
# [13] = tested on: Escherichia coli ATCC 25922
# [14] = tested on: Pseudomonas aeruginosa ATCC 27853
# [15] = tested on: Enterococcus faecalis ATCC 29212
# [16] = tested on: Streptococcus pyogenes ATCC 19615
# [17] = tested on: Klebsiella pneumoniae ATCC 13883
# [18] = tested on: Staphylococcus aureus ATCC BAA-44
# [19] = tested on: Staphylococcus epidermidis ATCC 51625
# [20] = tested on: Salmonella enterica subsp. enterica serovar Typhimurium ATCC 14028
# [21] = tested on: Staphylococcus aureus ATCC 25923
SMILES,MIC [1] [µM],MIC (Enterococcus faecalis VR) [µM],MIC (Staphylococcus aureus MR) [µM],MIC [2] [µM],MIC [3] [µM],MIC [4] [µM],MIC (Enterococcus faecium) [µM],MIC (Enterococcus faecium VR) [µM],MIC [5] [µM],MIC [6] [µM],MIC (Enterococcus faecalis) [µM],MIC (Escherichia coli) [µM],MIC (Bacillus subtilis) [µM],other results
CSCC[C@H](NC(=O)[C@H](C)NC(=O)[C@H](CC(C)C)NC(=O)[C@H](CS)NC(=O)[C@H](Cc1cnc[nH]1)NC(=O)[C@H](C)NC(=O)[C@H](C)N)C(=O)N[C@@H](CCCN=C(N)N)C(=O)N[C@@H](CCCN=C(N)N)C(=O)N[C@@H](CCCCN)C(N)=O [AAHCLAMRRK],30,30,30,30,30,30,30,7.5,30,15,30,,,
CC(C)C[C@H](NC(=O)[C@H](CS)NC(=O)[C@H](CCCN=C(N)N)NC(=O)[C@H](C)NC(=O)[C@H](C)N)C(=O)N[C@@H](CO)C(=O)N[C@@H](CCC(N)=O)C(=O)N[C@@H](CCCN=C(N)N)C(=O)N[C@@H](CCCN=C(N)N)C(=O)N[C@@H](CCCCN)C(N)=O [AARCLSQRRK],15,30,30,30,30,30,30,30,15,30,30,,,
CC[C@H](C)[C@H](NC(=O)[C@H](CS)NC(=O)[C@H](Cc1cnc[nH]1)NC(=O)[C@H](CC(C)C)NC(=O)[C@H](C)N)C(=O)N[C@@H](C)C(=O)N[C@@H](CC(C)C)C(=O)N[C@@H](CCCN=C(N)N)C(=O)N[C@@H](CCCCN)C(=O)N[C@@H](CCCCN)C(N)=O [ALHCIALRKK],15,15,7.5,7.5,15,15,15,3.8,15,7.5,15,,,
CC(C)C[C@H](N)C(=O)N[C@@H](C)C(=O)N[C@@H](Cc1cnc[nH]1)C(=O)N[C@@H](CCCN=C(N)N)C(=O)N[C@@H](Cc1ccc(O)cc1)C(=O)N[C@@H](Cc1cnc[nH]1)C(=O)O [LAHRYH],,,,,,,,,,,,2,,MIC (Micrococcus luteus A270): 9 µM; MIC [7]: 9 µM; MIC (Listeria innocua): 10 µM
CC(C)C[C@H](NC(=O)CNC(=O)[C@H](C)NC(=O)[C@@H](N)CCCN=C(N)N)C(=O)N[C@@H](CCC(N)=O)C(=O)N[C@@H](Cc1ccccc1)C(=O)N[C@@H](CC(C)C)C(=O)N[C@H](C(=O)NCC(=O)N[C@@H](CCCN=C(N)N)C(=O)N[C@H](C(=O)N[C@@H](Cc1cnc[nH]1)C(=O)N[C@@H](CCCN=C(N)N)C(=O)N[C@@H](CC(C)C)C(=O)N[C@@H](CC(C)C)C(=O)N[C@@H](CCCN=C(N)N)C(=O)N[C@@H](CCCCN)C(=O)O)C(C)C)C(C)C [RAGLQFLVGRVHRLLRK],,,,,,,,,,,,15.8,15.8,MIC (Streptococcus mutans): 15.8 µM; MIC (Salmonella typhimurium): 7.92 µM; MIC (Saccharomyces cerevisiae): 7.92 µM; MIC (Pseudomonas putida): 7.92 µM; MIC (Serratia marcescens): 31.7 µM; MIC (Streptococcus pneumoniae): 15.8 µM; MIC (Cryptococcus neoformans): 7.92 µM; MIC (Staphylococcus aureus): 15.8 µM; MIC (Candida albicans): 7.92 µM
CC(C)C[C@H](NC(=O)[C@H](CC(C)C)NC(=O)[C@H](CCCN=C(N)N)NC(=O)[C@H](Cc1cnc[nH]1)NC(=O)[C@@H](NC(=O)[C@H](CCCN=C(N)N)NC(=O)[C@H](CCCN=C(N)N)NC(=O)[C@H](CC(C)C)NC(=O)[C@H](CC(C)C)NC(=O)[C@H](CCCN=C(N)N)NC(=O)[C@H](Cc1cnc[nH]1)NC(=O)[C@@H](NC(=O)[C@H](CCCN=C(N)N)NC(=O)[C@H](CCCN=C(N)N)NC(=O)[C@H](CC(C)C)NC(=O)[C@H](CC(C)C)NC(=O)[C@H](CCCN=C(N)N)NC(=O)[C@H](Cc1cnc[nH]1)NC(=O)[C@@H](NC(=O)[C@@H](N)CCCN=C(N)N)C(C)C)C(C)C)C(C)C)C(=O)N[C@@H](CCCN=C(N)N)C(=O)O [RVHRLLRRVHRLLRRVHRLLR],,,,,,,,,,,,45.5,2.85,MIC (Streptococcus mutans): 11.4 µM; MIC (Salmonella typhimurium): 1.42 µM; MIC (Saccharomyces cerevisiae): ≥ 91.1 µM; MIC (Pseudomonas putida): 22.8 µM; MIC (Serratia marcescens): 22.8 µM; MIC (Streptococcus pneumoniae): ≥ 45.5 µM; MIC (Cryptococcus neoformans): ≥ 45.5 µM; MIC (Staphylococcus aureus): 22.8 µM; MIC (Candida albicans): > 91.1 µM
NC(N)=NCCC[C@H](NC(=O)[C@H](Cc1cnc[nH]1)NC(=O)[C@H](CO)NC(=O)[C@H](CCCN=C(N)N)NC(=O)[C@H](CCCN=C(N)N)NC(=O)[C@H](CS)NC(=O)[C@H](CCCN=C(N)N)NC(=O)[C@H](Cc1cnc[nH]1)NC(=O)[C@H](Cc1cnc[nH]1)NC(=O)[C@@H](N)CO)C(=O)N[C@@H](CS)C(=O)O [SHHRCRRSHRC],,,,,,,,,,,,,,MIC [8]: 22.3 µM; MIC [9]: > 22.3 µM; MIC [10]: > 22.3 µM; MIC [11]: 22.3 µM; MIC [12]: > 22.3 µM; MIC [13]: > 22.3 µM; MIC [14]: > 22.3 µM
CC(C)C[C@H](NC(=O)[C@H](CCCN=C(N)N)NC(=O)[C@H](CO)NC(=O)[C@H](Cc1cnc[nH]1)NC(=O)[C@H](CCCN=C(N)N)NC(=O)[C@@H]1CCCN1C(=O)[C@H](CCCN=C(N)N)NC(=O)[C@H](Cc1cnc[nH]1)NC(=O)[C@@H]1CCCN1C(=O)[C@H](CO)NC(=O)[C@H](CC(C)C)NC(=O)[C@H](CO)NC(=O)[C@H](CCCN=C(N)N)NC(=O)[C@H](CCCCN)NC(=O)[C@@H](NC(=O)[C@@H](NC(=O)CNC(=O)[C@H](CCCN=C(N)N)NC(=O)[C@H](Cc1cnc[nH]1)NC(=O)[C@H](Cc1c[nH]c2ccccc12)NC(=O)[C@H](Cc1ccccc1)NC(=O)[C@H](Cc1cnc[nH]1)NC(=O)[C@H](Cc1ccc(O)cc1)NC(=O)[C@@H](N)Cc1ccc(O)cc1)C(C)C)[C@@H](C)O)C(=O)N[C@@H](CCC(N)=O)C(=O)N[C@@H](CCCN=C(N)N)C(=O)O [YYHFWHRGVTKRSLSPHRPRHSRLQR],,,,,,,,,,,,2,2,MIC [15]: 4 µM; MIC [16]: 4 µM; MIC [17]: 2 µM; MIC [18]: 6 µM; MIC [19]: 6 µM; MIC [14]: 4 µM; MIC [20]: 4 µM; MIC [21]: 4 µM
